In patent US8084394B2, “Method for the control of harmful micro-organisms and insects in crop protection with means of dipole-electrical air-jet spray-technology, ozonated water and UV-C irradiation” (priority 2003, dated 2011):

Columns and labels:
[1] = stability (half-life) of ozone as gas and in water; type: physicochemical; settings: new injection technique with inorganic wetting agent; threefold
Method: Ozone is a highly unstable molecule in gaseous form which disintegrated in a short period of time (half-life time ca. 20 minutes) again in oxygen.
With this new injection technique of the extensive mixing of ozone with the spray waters and with the combination of an inorganic wetting agent, the ozone concentration in the dissolved gas bubbles can be up to 17% and has a threefold capacity in the water (up to 1 hour) the fact that ozone gas is transforming to oxygen.
The half-life time of Ozone in water is approximately 2 minutes, in other words the ozone concentration in water is reduced by half every 2 minutes.

[2] = cited from earlier work
[3] = tested on: microorganisms; settings: cited from earlier work
[4] = cited from earlier work; remark: listed apart in the source

O=[O+][O-] [Ozone]
capacity (persistence) of ozone in the water [1]: up to 1 hour
half-life time ([2]; gaseous form, disintegration to oxygen): ca. 20 minutes
half-life time of Ozone in water ([2]; in water): approximately 2 minutes
speed of destruction of microorganisms relative to chlorine ([3]; faster than chlorine): 3125 times
reactivity relative to chlorine ([3]; more reactive than chlorine): 51 times
exposition concentration unproblematic for permanent exposure [4]: 0.1 mg per m3/air
